Measurements taken from publication PMC7960510 (Immunity, 2021).

B1: TMEM161A: full-length protein TMEM161A expressed in HLA-A*02+ 293T cells (protein, UniProt Q9NX61 1-479, looked up)
chain: MAVLGVQLVVTLLTATLMHRLAPHCSFARWLLCNGSLFRYKHPSEEELRALAGKPRPRGRKERWANGLSEEKPLSVPRDAPFQLETCPLTTVDALVLRFFLEYQWFVDFAVYSGGVYLFTEAYYYMLGPAKETNIAVFWCLLTVTFSIKMFLTVTRLYFSAEEGGERSVCLTFAFLFLLLAMLVQVVREETLELGLEPGLASMTQNLEPLLKKQGWDWALPVAKLAIRVGLAVVGSVLGAFLTFPGLRLAQTHRDALTMSEDRPMLQFLLHTSFLSPLFILWLWTKPIARDFLHQPPFGETRFSLLSDSAFDSGRLWLLVVLCLLRLAVTRPHLQAYLCLAKARVEQLRREAGRIEAREIQQRVVRVYCYVTVVSLQYLTPLILTLNCTLLLKTLGGYSWGLGPAPLLSPDPSSASAAPIGSGEDEVQQTAARIAGALGGLLTPLFLRGVLAYLIWWTAACQLLASLFGLYFHQHLAGS
modifications: full-length

Assays:
Format in all cases: cell-based, human
[1] = tested on: Jurkat cells expressing TCR2 (Jurkat-TCR2); details: CD69; T2 cells pulsed with peptide, 2 μM, 18 h
[2] = tested on: Jurkat cells expressing TCR16; details: HLA-A*02:01, T2 cells pulsed with 9-mers
H1395 lung cancer cells = assay: Cell-mediated cytotoxicity of H1395 lung cancer cells by TCR2 primary T cells; details: peptide-pulsed A*02+ H1395 cells, TMEM9-mer compared to LMP9-mer
Jurkat-TCR15 clone = assay: Stimulation of Jurkat-TCR15 clone; details: HLA-A*02 context; TCR15 CDR3β […]
[3] = tested on: primary T cells expressing TCR2; details: HLA-A*02+ 293T cells overexpressing full-length protein, 1:1 ratio, 18 h

Molecule | stimulation of Jurkat-TCR2 cells (in words) [1] | further results
AMGGLLTQLAM | stimulated Jurkat cells expressing TCR2 | –
CLGGLLTMV [LMP9-mer] | could all stimulate the Jurkat-TCR2 cells | –
ALGGLLTPL [TMEM9-mer] | could all stimulate the Jurkat-TCR2 cells | recognition by TCR16 (in words) [2]: recognized TMEM9-mer but not the microbial antigens; cell-mediated cytotoxicity (in words) (H1395 lung cancer cells): weaker targets for cell-mediated cytotoxicity compared to those with LMP9-mer
KLGGLLTMVGV | stimulated Jurkat cells expressing TCR2 | –
LLGTLVAML | – | stimulation of Jurkat-TCR15 clone (in words) (Jurkat-TCR15 clone): also stimulated the Jurkat-TCR15 clone
LLGGLLTMV [EntS9-mer] | could all stimulate the Jurkat-TCR2 cells | –
B1 | – | stimulation of TCR2-T cells by full-length protein (in words) [3]: appearing to be the weakest stimulator
